Results on six molecules are retold here after patent US5140040A, “1-aminomethyl-1,2,3,4-tetrahydronaphthalenes” (Abbott Laboratories, priority 1991, dated 1992).

Where a name gives a salt, the structure may show the parent alone.

One may read the Ki as a measure of affinity in units of concentration, obtained from inhibition or displacement. The low end stands for a stronger hold on the target, the high end for a looser hold on the target.

In assay [1] the target is T1, alpha-1-receptor (Rattus norvegicus, UniProt P15823).
T1 construct: rat liver homogenates; from tissue; host or cells: rat liver homogenates
T1 sequence (P15823 1-515): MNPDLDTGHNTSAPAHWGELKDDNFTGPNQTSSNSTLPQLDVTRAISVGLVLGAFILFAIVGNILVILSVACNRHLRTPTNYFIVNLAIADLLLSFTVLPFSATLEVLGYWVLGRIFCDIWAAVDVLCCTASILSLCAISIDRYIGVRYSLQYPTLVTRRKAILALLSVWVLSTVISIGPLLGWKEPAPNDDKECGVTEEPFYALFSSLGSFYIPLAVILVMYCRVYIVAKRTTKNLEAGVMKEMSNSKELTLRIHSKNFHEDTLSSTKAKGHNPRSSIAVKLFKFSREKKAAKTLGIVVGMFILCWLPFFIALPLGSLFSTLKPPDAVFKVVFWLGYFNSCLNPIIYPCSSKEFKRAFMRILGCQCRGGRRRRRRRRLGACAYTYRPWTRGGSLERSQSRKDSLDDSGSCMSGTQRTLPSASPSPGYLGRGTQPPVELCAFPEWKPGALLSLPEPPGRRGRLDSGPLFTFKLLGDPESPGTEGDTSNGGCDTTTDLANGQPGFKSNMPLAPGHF
As to the kind of experiment: Radioligand binding, alpha-1 adrenoceptor, rat liver homogenates, [^3 H]-prazosin. As to the method: (§1) The compounds were assessed for alpha-adrenergic receptor subtype selectivity by use of radioligand binding techniques as described previously (DeBernardis et.al. J. Med. Chem. 28, 1398 (1985)).

In assay [2] the target is alpha-2-receptor. As to the kind of experiment: Radioligand binding, alpha-2 adrenoceptor, rat cerebral cortices, [^3 H]-rauwolscine. The following applies: for Ki: rat cerebral cortices, [^3 H]-rauwolscine; for alpha-2 - Selectivity Ki alpha-1/Ki alpha 2: ratio of Ki alpha-1 to Ki alpha-2. How it is done: as §1
Assay [3] deals with intraocular pressure. Briefly: Effect of topically administered compounds on intraocular pressure of rabbits. It counts as in vivo, New Zealand rabbits. The following applies: 0.3% soln., 0.1 ml topical. As to the method: The intraocular pressure lowering effects of the compounds were evaluated in unanesthetized male albino, New Zealand rabbits weighing 2.0 to 2.5 kg. The rabbits were placed in Plas Labs restraining devices for the duration of the experiment. Intraocular pressure (IOP) was measured with a Bausch and Lomb Applamatic Tonometer and recorded as the average of three individual readings at each time point in the experiment. Baseline IOP values were established at three time points separated by 30 minutes. Each compound or vehicle was applied topically to the cornea in a volume of 0.1 ml to one eye in each six rabbits. The contralateral eye was untreated. IOP was recorded at 5, 15, 30, 60 and 90 minutes after dosing.

As to “5-Methoxy-1-(3-phenylpyrrolidino-1-methyl) indane hydrochloride [Example 152]”, the Ki amounted to 51 nM in assay [1] and 4.8 nM in assay [2]. Moreover, in assay [2], the “alpha-2 - Selectivity Ki alpha-1/Ki alpha 2” value worked out at 11.
In the case of `CN(CCc1ccccc1)CC1CCCc2cc(O)ccc21` (stereo not shown) [11 (HCl salt)], the “% Change in Intraocular Pressure After Treatment Compared to Untreated Eye” value in assay [3] (5 minutes) is listed as -38%; in assay [3] (15 minutes) it was -55%; in assay [3] (30 minutes) it was -54%; in assay [3] (60 minutes) it was -44%; in assay [3] (90 minutes), -20%. Also, the values for the Ki in assay [1] and in assay [2] were 254 nM and 1.7 nM, respectively. Besides, the “alpha-2 - Selectivity Ki alpha-1/Ki alpha 2” value in assay [2] amounted to 149.
`CN(CCc1cccc(F)c1)CC1CCCc2cc(O)ccc21` (stereo not shown) [Example 10, 1-((N-Methylamino)methyl-N-(2-(m-fluorophenyl)ethyl))6-hydroxy tetralin hydrochloride]: the “% Change in Intraocular Pressure After Treatment Compared to Untreated Eye” value in assay [3] (5 minutes) was -45%; in assay [3] (15 minutes) it was -31%; in assay [3] (30 minutes), -25%; in assay [3] (60 minutes) it was -36%; in assay [3] (90 minutes), -23%.
`CN(CCc1cccs1)CC1CCCc2cc(Cl)ccc21` (stereo not shown) [Example 49, 1-((N-Methylamino)meth-N-(2-(2-thienyl)ethyl))-6-chloro tetralin hydrochloride] registered a Ki in assay [1] of 1130 nM. For the same molecule, in assay [2], affinity was put at a Ki of 10 nM and the “alpha-2 - Selectivity Ki alpha-1/Ki alpha 2” value is recorded as 113.
Taken in the same sequence, the figures for `Fc1ccc2c(c1)CCCC2CN1CCC(c2cccs2)C1` (stereo not shown) [Example 149, 6-Fluoro-1-(3-(2-thienyl)pyrrolidino-1-methyl) tetralin methanesulfonate] were 220 nM, 4.9 nM and 45.
Consider `CN(C)c1ccc2c(c1)CCCC2CN1CCC(c2ccccc2)C1` (stereo not shown) [Example 188, 6-(N-N'-dimethylamino)-1-(3-phenylpyrrolidino-1-methyl)tetralin dihydrochloride], for which the Ki in assay [1] amounted to 118 nM; in assay [2], 0.5 nM. Also, the “alpha-2 - Selectivity Ki alpha-1/Ki alpha 2” value in assay [2] was 236.
